Results from ChEMBL document CHEMBL3832042, “DailyMed|setid=5d4f90d4-e535-4681-a863-3d774a2064e6 | ANASTROZOLE - anastrozole tablet|PD-Rx Pharmaceuticals, Inc”.
Several values for one entry are separate records, joined by “and”; a condition that tells them apart may be missing. Equal values may be shown once.

What was measured:
Homo sapiens = experiment: Evaluation of pharmacokinetic parameters for Anastrazole following multiple oral administration of Anastrazole to Caucasian and to Japanese female subjects.; type: ADME, organism-based; conditions: in vivo, dose 1 mg, dosed compound id 24, dosed compound name ANASTROZOLE, gender female, regimen every 24h, study dosing duration 16 days, tissue Plasma
[1] = Evaluation of pharmacokinetic parameters for Anastrazole following single oral administration of Anastrazole to subjects under fatsed and fed conditions.; conditions: human, in vivo

Cmin ss (Homo sapiens): 30.4 ng/mL and 25.7 ng/mL | half-life [1]: 50 h
Compound: CC(C)(C#N)c1cc(Cn2cncn2)cc(C(C)(C)C#N)c1 [ANASTROZOLE]
